# Measurements reported in EP4817594A1, “SKIN CONDITION IMPROVEMENT COMPOSITION COMPRISING GLUTATHIONE-CONTAINING EXOSOME-LIKE VESICLES” (Cosmax, Inc., priority 2023, dated 2025).
# Read-outs that look alike come from different tables or passages of the source.
# Procedure: At this time, reduced glutathione was used as a standard.
# Each of the diluted standard, the sample of Comparative Example 1 diluted in tertiary distilled water, the sample of Example diluted in tertiary distilled water, and the sample of Comparative Example 2 diluted in tertiary distilled water was filtered through a 0.2 µm-syringe filter, and the filtrate was put into a vial for HPLC. 10 ul was injected into a C18 column, and the samples were eluted at a flow rate of 1 ml/min, and the values were measured by using a DAD detector.
smiles,measurement,setting,value
"N[C@@H](CCC(=O)N[C@@H](CS)C(=O)NCC(=O)O)C(=O)O [Comparative Example 1, Glutathione]",Relative concentration of reduced glutathione (GSH),"Immediately after loading, 25 °C, light blocked",1.00
same,Relative concentration of reduced glutathione (GSH),"water, 4380 h",0.21
same,glutathione concentration compared to the initial concentration,"water, 4380 h",about 20%
same,Relative concentration of reduced glutathione (GSH),"water, 8766 h",0.06
same,glutathione concentration compared to the initial concentration,"water, 8766 h",about 6%
